Experimental data from US20150105252A1, “SUBSTITUTED PYRAZOLES AS HERBICIDES” (E I DU PONT DE NEMOURS AND COMPANY, priority 2013, published 2015).

How the values were obtained:
[1] = test system: nutsedge, purple; experiment: Test E preemergence; format: in vivo, Cyperus rotundus; conditions: 21 days, scale 0 to 100
Description: (§1) Seeds of plant species selected from bermudagrass (Cynodon dactylon), Surinam grass (Brachiaria decumbens), crabgrass, large (large crabgrass, Digitaria sanguinalis), crabgrass, naked (naked crabgrass, Digitaria nuda), foxtail, green (green foxtail, Setaria viridis), johnsongrass (Sorghum halepense), kochia (Kochia scoparia), morningglory (pitted morningglory, Ipomoea lacunosa), nutsedge, purple (purple nutsedge, Cyperus rotundus), ragweed (common ragweed, Ambrosia elation), mustard, black (black mustard, Brassica nigra), guineagrass (Panicum maximum), dallisgrass (Paspalum dilatatum), barnyardgrass (Echinochloa crus-galli), sandbur (southern sandbur, Cenchrus echinatus), sowthistle (common sowthistle, Sonchus oleraceous), ryegrass, Italian (Italian ryegrass, Lolium multiflorum), signalgrass (broadleaf signalgrass, Brachiaria platyphylla), dayflower, VA (Virginia (VA) dayflower, Commelina virginica), bluegrass (annual bluegrass, Poa annua), quackgrass (Elytrigia repens), mallow (common mallow, Malva sylvestris), buckwheat, wild (wild buckwheat, Polygonum convolvulus), leafy spurge (Euphorbia esula), common chickweed (Stellaria media), wild poinsettia (Euphorbia heterophylla), pigweed, palmer (palmer pigweed, Amaranthus palmeri), and pigweed (redroot pigweed, Amaranthus retroflexus) were planted into a blend of loam soil and sand and treated preemergence with test chemicals formulated in a non-phytotoxic solvent mixture which included a surfactant.
(§2) Treated plants and controls were maintained in a greenhouse for 21 days, after which time all species were compared to controls and visually evaluated. Plant response ratings, summarized in Table E, are based on a scale of 0 to 100 where 0 is no effect and 100 is complete control. A dash (-) response means no test result.

[2] = test system: crabgrass, large; experiment: Test E preemergence; format: in vivo, Digitaria sanguinalis; conditions: 21 days, scale 0 to 100
Description: as §1, §2

[3] = test system: Italian ryegrass; experiment: Test F postemergence; format: in vivo, Lolium multiflorum; conditions: scale 0 to 100
Description: (§3) Seeds of plant species selected from corn (Zea mays), soybean (Glycine max), velvetleaf (Abutilon theophrasti), lambsquarters (Chenopodium album), wild poinsettia (Euphorbia heterophylla), pigweed, palmer (palmer pigweed, Amaranthus palmeri), common waterhemp (Amaranthus rudis), surinam grass (Brachiaria decumbens), large crabgrass (Digitaria sanguinalis), crabgrass, Brazil (Brazilian crabgrass, Digitaria horizontalis), fall panicum (Panicum dichotomiflorum), giant foxtail (Setaria faberii), green foxtail (Setaria viridis), goosegrass (Eleusine indica), johnsongrass (Sorghum halepense), common ragweed (Ambrosia elation), barnyardgrass (Echinochloa crus-galli), southern sandbur (Cenchrus echinatus), arrowleaf sida (Sida rhombifolia), Italian ryegrass (Lolium multiflorum), dayflower, VA (Virginia (VA) dayflower, Commelina virginica), field bindweed (Convolvulus arvensis), cocklebur (common cocklebur, Xanthium strumarium), morningglory (Ipomoea coccinea), nightshade (eastern black nightshade, Solanum ptycanthum), kochia (Kochia scoparia), yellow nutsedge (Cyperus esculentus), and hairy beggarticks (Bidens pilosa), were planted into a silt loam soil and treated preemergence with test chemicals formulated in a non-phytotoxic solvent mixture which included a surfactant.
(§4) At the same time, plants from these crop and weed species and also horseweed (Canada horseweed, Conyza canadensis), smartweed (ladysthumb smartweed, Polygonum persicaria), waterhemp_RES1, (ALS & Triazine resistant common waterhemp, Amaranthus rudis), and waterhemp_RES2, (ALS & HPPD resistant common waterhemp, Amaranthus rudis) were treated with postemergence applications of test chemicals formulated in the same manner. Plants ranged in height from 2 to 18 cm for postemergence treatments (1- to 4-leaf stage). Treated plants and controls were maintained in a greenhouse for 14 to 21 days, after which time all species were compared to controls and visually evaluated. Plant response ratings, summarized in Table F, are based on a scale of 0 to 100 where 0 is no effect and 100 is complete control. A dash (-) response means no test result.

[4] = test system: smartweed; experiment: Test F postemergence; format: in vivo, Polygonum persicaria; conditions: 500 g ai/ha, scale 0 to 100
Description: as §3, §4

[5] = test system: foxtail, green; experiment: Test E preemergence; format: in vivo, Setaria viridis; conditions: 21 days, scale 0 to 100
Description: as §1, §2

[6] = test system: crabgrass, Brazil; experiment: Test F postemergence; format: in vivo, Digitaria horizontalis; conditions: scale 0 to 100
Description: as §3, §4

[7] = test system: bluegrass; experiment: Test E preemergence; format: in vivo, Poa annua; conditions: 21 days, scale 0 to 100
Description: as §1, §2

[8] = test system: galium; experiment: Test A postemergence; format: in vivo, Galium aparine
Procedure, shortened: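 Seeds were sown in a loam soil–sand blend and given a directed soil spray preemergence; postemergence plants at 2–10 cm, one- to two-leaf stage, were sprayed with compound in non-phytotoxic solvent with surfactant. After about 10 days in a greenhouse, injury was visually rated against untreated controls (0 = no effect, 100 = complete control).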

[9] = test system: barnyardgrass; experiment: Test C flooded paddy test; format: in vivo, Echinochloa crus-galli; conditions: Flood
Procedure, shortened: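 Visual injury ratings against untreated controls, taken 13 to 15 days after compound was added to paddy water standing 3 cm above the soil.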

[10] = Postemergence, 500 g ai/ha, 0 to 100 scale (0 no effect, 100 complete control)
[11] = postemergence, 125 g ai/ha, about 10 days, visual rating on 0 to 100 scale (0 no effect, 100 complete control)
[12] = 31 g ai/ha, scale 0 to 100 (0 no effect, 100 complete control)
[13] = 62 g ai/ha, scale 0 to 100 (0 no effect, 100 complete control)
[14] = 125 g ai/ha, scale 0 to 100 (0 no effect, 100 complete control)

CCc1cc(C(=O)NCC(F)(F)F)nn1Cc1ccnc(C(F)(F)F)c1 [Compound 78, 5-ethyl-N-(2,2,2-trifluoroethyl)-1-[[(2-trifluoromethyl)-4-pyridinyl]methyl]-1H-pyrazole-3-carboxamide]
Plant response rating, Nutsedge, Purple ([1]; 16 g ai/ha): 35
Plant response rating, Nutsedge, Purple ([1]; 31 g ai/ha): 75
Plant response rating, Nutsedge, Purple ([1]; 62 g ai/ha): 98
Plant response rating, Nutsedge, Purple ([1]; 125 g ai/ha): 100
Plant response rating, Nutsedge, Purple ([1]; 250 g ai/ha): 100
Plant response rating, Crabgrass, Large ([2]; 16 g ai/ha): 90
Plant response rating, Crabgrass, Large ([2]; 31 g ai/ha): 100
Plant response rating, Crabgrass, Large ([2]; 62 g ai/ha): 100
Plant response rating, Crabgrass, Large ([2]; 125 g ai/ha): 100
Plant response rating, Crabgrass, Large ([2]; 250 g ai/ha): 100
Plant response rating, Italian Ryegrass ([3]; Postemergence, 31 g ai/ha): 0
Plant response rating, Italian Ryegrass ([3]; Postemergence, 125 g ai/ha): 40
Plant response rating, Italian Ryegrass ([3]; Postemergence, 250 g ai/ha): 60
Plant response rating, Italian Ryegrass ([3]; postemergence, 62 g ai/ha): 10
Plant response rating, Italian Ryegrass ([3]; postemergence, 500 g ai/ha): 90
Plant response rating, Smartweed [4]: 100
Plant response rating, Foxtail, Green ([5]; 16 g ai/ha): 50
Plant response rating, Foxtail, Green ([5]; 31 g ai/ha): 100
Plant response rating, Foxtail, Green ([5]; 62 g ai/ha): 100
Plant response rating, Foxtail, Green ([5]; 125 g ai/ha): 100
Plant response rating, Foxtail, Green ([5]; 250 g ai/ha): 100
Plant response rating, Crabgrass, Brazil ([6]; Postemergence, 31 g ai/ha): 40
Plant response rating, Crabgrass, Brazil ([6]; Postemergence, 125 g ai/ha): 70
Plant response rating, Crabgrass, Brazil ([6]; Postemergence, 250 g ai/ha): 90
Plant response rating, Crabgrass, Brazil ([6]; postemergence, 62 g ai/ha): 40
Plant response rating, Crabgrass, Brazil ([6]; postemergence, 500 g ai/ha): 95
Plant response rating, Bluegrass ([7]; 16 g ai/ha): 40
Plant response rating, Bluegrass ([7]; 31 g ai/ha): 75
Plant response rating, Bluegrass ([7]; 62 g ai/ha): 90
Plant response rating, Bluegrass ([7]; 125 g ai/ha): 100
Plant response rating, Bluegrass ([7]; 250 g ai/ha): 100

CCc1cc(C(=O)NC(C)C)nn1Cc1ccnc(C(F)(F)F)c1 [Compound 103]
Plant response rating, Nutsedge, Purple ([1]; 16 g ai/ha): 15
Plant response rating, Nutsedge, Purple ([1]; 31 g ai/ha): 75
Plant response rating, Nutsedge, Purple ([1]; 62 g ai/ha): 90
Plant response rating, Nutsedge, Purple ([1]; 125 g ai/ha): 98
Plant response rating, Nutsedge, Purple ([1]; 250 g ai/ha): 100
Plant response rating, Crabgrass, Large ([2]; 16 g ai/ha): 100
Plant response rating, Crabgrass, Large ([2]; 31 g ai/ha): 100
Plant response rating, Crabgrass, Large ([2]; 62 g ai/ha): 100
Plant response rating, Crabgrass, Large ([2]; 125 g ai/ha): 100
Plant response rating, Crabgrass, Large ([2]; 250 g ai/ha): 100
Plant response rating, Foxtail, Green ([5]; 16 g ai/ha): 100
Plant response rating, Foxtail, Green ([5]; 31 g ai/ha): 100
Plant response rating, Foxtail, Green ([5]; 62 g ai/ha): 100
Plant response rating, Foxtail, Green ([5]; 125 g ai/ha): 100
Plant response rating, Foxtail, Green ([5]; 250 g ai/ha): 100
Plant response rating, Bluegrass ([7]; 16 g ai/ha): 40
Plant response rating, Bluegrass ([7]; 31 g ai/ha): 90
Plant response rating, Bluegrass ([7]; 62 g ai/ha): 95
Plant response rating, Bluegrass ([7]; 125 g ai/ha): 98
Plant response rating, Bluegrass ([7]; 250 g ai/ha): 100

CCONC(=O)c1cc(CC)n(Cc2cc(C(F)(F)F)no2)n1 [Compound 125]
Galium plant response rating [8, 10]: 90
Galium plant response rating [8, 11]: 60

CCOc1cc(C(=O)NC2CC2)nn1Cc1ccnc(OC(F)F)c1 [Compound 133]
Galium plant response rating [8, 10]: 90
Galium plant response rating [8, 11]: 80

CCCNC(=O)c1cc(CCCl)n(Cc2ccnc(C(F)(F)F)c2)n1 [Compound 145]
Plant response rating, Barnyardgrass [9, 12]: 0
Plant response rating, Barnyardgrass [9, 13]: 0
Plant response rating, Barnyardgrass ([9]; 125 g ai/ha, scale 0 to 100): 30
Plant response rating, Barnyardgrass ([9]; 250 g ai/ha, scale 0 to 100): 40

CCOc1cc(C(=O)NC(C)C)nn1Cc1ccnc(C(F)(F)F)c1 [Compound 188]
Plant response rating, Italian Ryegrass ([3]; Postemergence, 31 g ai/ha): 5
Plant response rating, Italian Ryegrass ([3]; Postemergence, 125 g ai/ha): 30
Plant response rating, Italian Ryegrass ([3]; Postemergence, 250 g ai/ha): 60
Plant response rating, Italian Ryegrass ([3]; postemergence, 62 g ai/ha): 10
Plant response rating, Italian Ryegrass ([3]; postemergence, 500 g ai/ha): 85
Plant response rating, Smartweed [4]: 95
Plant response rating, Crabgrass, Brazil ([6]; Postemergence, 31 g ai/ha): 20
Plant response rating, Crabgrass, Brazil ([6]; Postemergence, 125 g ai/ha): 75
Plant response rating, Crabgrass, Brazil ([6]; Postemergence, 250 g ai/ha): 90
Plant response rating, Crabgrass, Brazil ([6]; postemergence, 62 g ai/ha): 30
Plant response rating, Crabgrass, Brazil ([6]; postemergence, 500 g ai/ha): 95

CCOc1cc(C(=O)NC2CC2)nn1Cc1ccnc(C(F)(F)F)c1 [Compound 189]
Plant response rating, Nutsedge, Purple ([1]; 4 g ai/ha): 0
Plant response rating, Nutsedge, Purple ([1]; 8 g ai/ha): 10
Plant response rating, Nutsedge, Purple ([1]; 16 g ai/ha): 50
Plant response rating, Nutsedge, Purple ([1]; 31 g ai/ha): 50
Plant response rating, Nutsedge, Purple ([1]; 62 g ai/ha): 85
Plant response rating, Crabgrass, Large ([2]; 4 g ai/ha): 0
Plant response rating, Crabgrass, Large ([2]; 8 g ai/ha): 95
Plant response rating, Crabgrass, Large ([2]; 16 g ai/ha): 100
Plant response rating, Crabgrass, Large ([2]; 31 g ai/ha): 100
Plant response rating, Crabgrass, Large ([2]; 62 g ai/ha): 100
Plant response rating, Foxtail, Green ([5]; 4 g ai/ha): 0
Plant response rating, Foxtail, Green ([5]; 8 g ai/ha): 20
Plant response rating, Foxtail, Green ([5]; 16 g ai/ha): 100
Plant response rating, Foxtail, Green ([5]; 31 g ai/ha): 100
Plant response rating, Foxtail, Green ([5]; 62 g ai/ha): 100
Plant response rating, Bluegrass ([7]; 4 g ai/ha): 0
Plant response rating, Bluegrass ([7]; 8 g ai/ha): 0
Plant response rating, Bluegrass ([7]; 16 g ai/ha): 50
Plant response rating, Bluegrass ([7]; 31 g ai/ha): 50
Plant response rating, Bluegrass ([7]; 62 g ai/ha): 80

CCONC(=O)c1cc(OCC)n(Cc2ccnc(C(F)(F)F)c2)n1 [Compound 195]
Plant response rating, Barnyardgrass [9, 12]: 0
Plant response rating, Barnyardgrass [9, 13]: 30
Plant response rating, Barnyardgrass [9, 14]: 40
Plant response rating, Barnyardgrass ([9]; 250 g ai/ha, scale 0 to 100): 45

CCc1cc(C(=O)NC2CC2)nn1Cc1ccnc(OCC(F)(F)F)c1 [Compound 200]
Plant response rating, Barnyardgrass [9, 12]: 0
Plant response rating, Barnyardgrass [9, 13]: 0
Plant response rating, Barnyardgrass [9, 14]: 20
Plant response rating, Barnyardgrass ([9]; 250 g ai/ha, scale 0 to 100): 40

CCc1cc(C(=O)NCC(F)(F)F)nn1Cc1cc(OC(F)F)nn1C [Compound 206]
Galium plant response rating ([8]; Postemergence, 125 g ai/ha, 0 to 100 scale, 0 no effect, 100 complete control): 20
Galium plant response rating [8, 10]: 80

CCc1cc(C(=O)NC2CC2)nn1Cc1cc(C(F)(F)C(F)(F)F)nn1C [Compound 226]
Plant response rating, Barnyardgrass [9, 12]: 0
Plant response rating, Barnyardgrass [9, 13]: 0
Plant response rating, Barnyardgrass [9, 14]: 0
